Values quoted from earlier work, collected in patent US7390505B2, “Nanoparticulate topiramate formulations” (Elan Pharma International, Ltd., priority 2003, dated 2008).

Columns and labels:
[1] = human, in vivo
[2] = not given; remark: listed apart in the source

- withdrawal due to depression (in vivo): 3%
- withdrawal due to difficulty with memory (in vivo): 3%
- withdrawal due to paraesthesia (in vivo): 5 % of patients
- solubility in organic solvents ([2]; acetone, chloroform, dimethylsulfoxide, and ethanol): freely soluble
- solubility in alkaline solutions ([2]; solutions containing sodium hydroxide or sodium phosphate, pH of 9 to 10): most soluble
Compound: CC1(C)O[C@@H]2[C@@H](CO[C@@]3(COS(N)(=O)=O)OC(C)(C)O[C@@H]23)O1 [Topiramate, 2,3:4,5-Di-O-isopropylidene-β-D-fructopyranose sulfamate]
- patients who withdrew because of side effects (96 mg/d or 192 mg/d): 19%
- incidence of ataxia, impaired concentration, confusion, dizziness, fatigue, paraesthesia, somnolence and abnormal thinking [1]: ≥ 5 % of patients
